Assay results: patent US9617246B2, “Thioether-piperidinyl orexin receptor antagonists” (MERCK SHARP & DOHME CORP., priority 2013, dated 2017)

What was measured:
hOX1R = hOX1R (Homo sapiens, UniProt O43613); test: FLIPR Ca2+ Flux Assay, orexin-1 receptor; type: cell-based; details: CHO cells, agonist 70 pM Ala-6,12 human orexin-A
human orexin-2 receptor = human orexin-2 receptor (Homo sapiens (Human), UniProt O43614); test: FLIPR Ca2+ Flux Assay, orexin-2 receptor; type: cell-based; details: CHO cells, agonist 70 pM Ala-6,12 human orexin-A; read-out: hOX2R FLIPR IC50
human orexin-2 receptor, sequence (O43614 whole entry): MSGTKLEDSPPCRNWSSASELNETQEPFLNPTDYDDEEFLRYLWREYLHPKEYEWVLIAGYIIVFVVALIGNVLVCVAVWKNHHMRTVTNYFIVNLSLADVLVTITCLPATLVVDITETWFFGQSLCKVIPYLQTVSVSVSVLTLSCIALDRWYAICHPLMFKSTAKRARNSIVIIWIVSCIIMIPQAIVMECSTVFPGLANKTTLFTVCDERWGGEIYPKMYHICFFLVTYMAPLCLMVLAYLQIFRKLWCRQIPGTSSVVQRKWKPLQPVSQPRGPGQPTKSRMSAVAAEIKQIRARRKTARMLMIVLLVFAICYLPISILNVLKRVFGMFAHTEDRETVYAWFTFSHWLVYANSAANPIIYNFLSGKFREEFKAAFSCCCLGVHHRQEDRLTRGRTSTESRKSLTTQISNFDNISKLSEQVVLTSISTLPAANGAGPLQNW
Experimental: The utility of the compounds in accordance with the present invention as orexin receptor OX1R and/or OX2R antagonists may be readily determined without undue experimentation by methodology well known in the art, including the “FLIPR Ca^2+ Flux Assay” (Okumura et al., Biochem. Biophys. Res. Comm. 280:976-981, 2001). In a typical experiment the OX1 and OX2 receptor antagonistic activity of the compounds of the present invention was determined in accordance with the following experimental method. For intracellular calcium measurements, Chinese hamster ovary (CHO) cells expressing the rat orexin-1 receptor or the human orexin-2 receptor, are grown in Iscove's modified DMEM containing 2 mM L-glutamine, […], 1% hypoxanthine-thymidine supplement, 100 U/ml penicillin, 100 μg/ml streptomycin and 10% heat-inactivated fetal calf serum (FCS). The cells are seeded at 20,000 cells/well into Becton-Dickinson black 384-well clear bottom sterile plates coated with poly-D-lysine. All reagents were from GIBCO-Invitrogen Corp. The seeded plates are incubated overnight at 37° C. and 5% CO2. Ala-6,12 human orexin-A as the agonist is prepared as a 1 mM stock solution in 1% bovine serum albumin (BSA) and diluted in assay buffer (HBSS containing 20 mM HEPES, 0.1% BSA and 2.5 mM probenecid, pH7.4) for use in the assay at a final concentration of 70 pM. Test compounds are prepared as 10 mM stock solution in DMSO, then diluted in 384-well plates, first in DMSO, then assay buffer. On the day of the assay, cells are washed 3 times with 100 μl assay buffer and then incubated for 60 min (37° C., 5% CO2) in 60 μl assay buffer containing 1 μM Fluo-4AM ester, 0.02% pluronic acid, and 1% BSA. The dye loading solution is then aspirated and cells are washed 3 times with 100 μl assay buffer. 30 μl of that same buffer is left in each well. Within the Fluorescent Imaging Plate Reader (FLIPR, Molecular Devices), test compounds are added to the plate in a volume of 25 μl, incubated for 5 min and finally 25 μl of agonist is added. Fluorescence is measured for each well at 1 second intervals for 5 minutes and the height of each fluorescence peak is compared to the height of the fluorescence peak induced by 70 pM Ala-6,12 orexin-A with buffer in place of antagonist. For each antagonist, IC50 value (the concentration of compound needed to inhibit 50% of the agonist response) is determined. Alternatively, compound potency can be assessed by a radioligand binding assay (described in Bergman et. al. Bioorg. Med. Chem. Lett. 2008, 18, 1425-1430) in which the inhibition constant (Ki) is determined in membranes prepared from CHO cells expressing either the OX1 or OX2 receptor. The intrinsic orexin receptor antagonist activity of a compound which may be used in the present invention may be determined by these assays.

Compound | IC50 (hOX1R) | IC50 (human orexin-2 receptor)
COC(=O)c1c(C)ccnc1S[C@@H]1CC[C@@H](C)N(C(=O)c2ccccc2-n2nccn2)C1 [Example 1, Methyl 4-methyl-2-{[(3R,6R)-6-methyl-1-{[2-(2H-1,2,3-triazol-2-yl)phenyl]carbonyl}-piperidin-3-yl]sulfanyl}pyridine-3-carboxylate] | 27.8 nM | 22.2 nM
Cc1cc(C#N)cc(S[C@@H]2CC[C@@H](C)N(C(=O)c3ccccc3-n3nccn3)C2)n1 [Example 2, 2-methyl-6-{[(3R,6R)-6-methyl-1-{[2-(2H-1,2,3-triazol-2-yl)phenyl]carbonyl}piperidin-3-yl]sulfanyl}pyridine-4-carbonitrile] | 1540 nM | 82.9 nM
COC(=O)c1cccnc1S[C@@H]1CC[C@@H](C)N(C(=O)c2ccccc2-n2nccn2)C1 [Example 3, methyl 2-{[(3R,6R)-6-methyl-1-{[2-(2H-1,2,3-triazol-2-yl)phenyl]carbonyl}piperidin-3-yl]sulfanyl}pyridine-3-carboxylate] | 48.1 nM | 23.9 nM
COC(=O)c1c(I)ccnc1S[C@@H]1CC[C@@H](C)N(C(=O)c2ccccc2-n2nccn2)C1 [Example 4, methyl 4-iodo-2-{[(3R,6R)-6-methyl-1-{[2-(2H-1,2,3-triazol-2-yl)phenyl]carbonyl}piperidin-3-yl]sulfanyl}pyridine-3-carboxylate] | 54.4 nM | 23.6 nM
C[C@@H]1CC[C@@H](Sc2ccccn2)CN1C(=O)c1ccccc1-n1nccn1 [Example 7, 2-{[(3R,6R)-6-methyl-1-{[2-(2H-1,2,3-triazol-2-yl)phenyl]carbonyl}piperidin-3-yl]sulfanyl}pyridine] | 1630 nM | 179 nM
C[C@@H]1CC[C@@H](Sc2ccc(C(F)(F)F)cn2)CN1C(=O)c1ccccc1-n1nccn1 [Example 8, 2-{[(3R,6R)-6-methyl-1-{[2-(2H-1,2,3-triazol-2-yl)phenyl]carbonyl}piperidin-3-yl]sulfanyl}-5-(trifluoromethyl)pyridine] | 596 nM | 322 nM
C[C@@H]1CC[C@@H](Sc2cc(C#N)ccn2)CN1C(=O)c1ccccc1-n1nccn1 [Example 9, 2-{[(3R,6R)-6-methyl-1-{[2-(2H-1,2,3-triazol-2-yl)phenyl]carbonyl}piperidin-3-yl]sulfanyl}pyridine-4-carbonitrile] | 1410 nM | 13.5 nM
Cc1ccnc(S[C@@H]2CC[C@@H](C)N(C(=O)c3ccccc3-n3nccn3)C2)c1C#N [Example 10, 4-methyl-2-{[(3R,6R)-6-methyl-1-{[2-(2H-1,2,3-triazol-2-yl)phenyl]carbonyl}piperidin-3-yl]sulfanyl}pyridine-3-carbonitrile] | 634 nM | 24.2 nM
Cc1ccnc(S[C@@H]2CC[C@@H](C)N(C(=O)c3ccccc3-n3nccn3)C2)c1 [Example 11, 4-methyl-2-{[(3R,6R)-6-methyl-1-{[2-(2H-1,2,3-triazol-2-yl)phenyl]carbonyl}piperidin-3-yl]sulfanyl}pyridine] | 440 nM | 20 nM
COC(=O)c1ccnc(S[C@@H]2CC[C@@H](C)N(C(=O)c3ccccc3-n3nccn3)C2)c1 [Example 13, methyl 2-{[(3R,6R)-6-methyl-1-{[2-(2H-1,2,3-triazol-2-yl)phenyl]carbonyl}piperidin-3-yl]sulfanyl}pyridine-4-carboxylate] | 6310 nM | 297 nM
COc1ccc(C(=O)N2C[C@H](Sc3cc(C#N)ccn3)CC[C@H]2C)c(-n2nccn2)n1 [Example 14, 2-{[(3R,6R)-1-{[6-Methoxy-2-(2H-1,2,3-triazol-2-yl)pyridin-3-yl]carbonyl}-6-methylpiperidin-3-yl]sulfanyl}pyridine-4-carbonitrile] | 10000 nM | 149 nM
C[C@@H]1CC[C@@H](Sc2cc(C#N)ccn2)CN1C(=O)c1c(F)cccc1-n1nccn1 [Example 16, 2-{[(3R,6R)-1-{[2-fluoro-6-(2H-1,2,3-triazol-2-yl)phenyl]carbonyl}-6-methylpiperidin-3-yl]sulfanyl}pyridine-4-carbonitrile] | 2350 nM | 51.4 nM
COc1cccc(-n2nccn2)c1C(=O)N1C[C@H](Sc2cc(C#N)ccn2)CC[C@H]1C [Example 17, 2-{[(3R,6R)-1-{[2-methoxy-6-(2H-1,2,3-triazol-2-yl)phenyl]carbonyl}-6-methylpiperidin-3-yl]sulfanyl}pyridine-4-carbonitrile] | 5880 nM | 51.2 nM
Cc1cccc(C(=O)N2C[C@H](Sc3cc(C#N)ccn3)CC[C@H]2C)c1-n1nccn1 [Example 18, 2-{[(3R,6R)-6-methyl-1-{[3-methyl-2-(2H-1,2,3-triazol-2-yl)phenyl]carbonyl}piperidin-3-yl]sulfanyl}pyridine-4-carbonitrile] | 803 nM | 14.4 nM
C[C@@H]1CC[C@@H](Sc2cc(C#N)ccn2)CN1C(=O)c1cccc(F)c1-n1nccn1 [Example 19, 2-{[(3R,6R)-1-{[3-fluoro-2-(2H-1,2,3-triazol-2-yl)phenyl]carbonyl}-6-methylpiperidin-3-yl]sulfanyl}pyridine-4-carbonitrile] | 2550 nM | 20.8 nM
C[C@@H]1CC[C@@H](Sc2cc(C#N)ccn2)CN1C(=O)c1ccc(Cl)cc1-n1nccn1 [Example 20, 2-{[(3R,6R)-1-{[4-chloro-2-(2H-1,2,3-triazol-2-yl)phenyl]carbonyl}-6-methylpiperidin-3-yl]sulfanyl}pyridine-4-carbonitrile] | 1030 nM | 15.5 nM
C[C@@H]1CC[C@@H](Sc2cc(C#N)ccn2)CN1C(=O)c1ccc(F)cc1-n1nccn1 [Example 21, 2-{[(3R,6R)-1-{[4-fluoro-2-(2H-1,2,3-triazol-2-yl)phenyl]carbonyl}-6-methylpiperidin-3-yl]sulfanyl}pyridine-4-carbonitrile] | 2720 nM | 26.1 nM
Cc1ccc(C(=O)N2C[C@H](Sc3cc(C#N)ccn3)CC[C@H]2C)c(-n2nccn2)c1 [Example 22, 2-{[(3R,6R)-6-methyl-1-{[4-methyl-2-(2H-1,2,3-triazol-2-yl)phenyl]carbonyl}piperidin-3-yl]sulfanyl}pyridine-4-carbonitrile] | 1500 nM | 49 nM
COc1ccc(C(=O)N2C[C@H](Sc3cc(C#N)ccn3)CC[C@H]2C)c(-n2nccn2)c1 [Example 23, 2-{[(3R,6R)-1-{[4-methoxy-2-(2H-1,2,3-triazol-2-yl)phenyl]carbonyl}-6-methylpiperidin-3-yl]sulfanyl}pyridine-4-carbonitrile] | 7820 nM | 224 nM
C[C@@H]1CC[C@@H](Sc2cc(C#N)ccn2)CN1C(=O)c1cc(Br)ccc1-n1nccn1 [Example 24, 2-{[(3R,6R)-1-{[5-bromo-2-(2H-1,2,3-triazol-2-yl)phenyl]carbonyl}-6-methylpiperidin-3-yl]sulfanyl}pyridine-4-carbonitrile] | 489 nM | 14.9 nM
C[C@@H]1CC[C@@H](Sc2cc(C#N)ccn2)CN1C(=O)c1cc(Cl)ccc1-n1nccn1 [Example 25, 2-{[(3R,6R)-1-{[5-chloro-2-(2H-1,2,3-triazol-2-yl)phenyl]carbonyl}-6-methylpiperidin-3-yl]sulfanyl}pyridine-4-carbonitrile] | 4860 nM | 214 nM
C[C@@H]1CC[C@@H](Sc2cc(C#N)ccn2)CN1C(=O)c1ccccc1-c1ccccc1 [Example 28, 2-{[(3R,6R)-1-(biphenyl-2-ylcarbonyl)-6-methylpiperidin-3-yl]sulfanyl}pyridine-4-carbonitrile] | 279 nM | 16.7 nM
C[C@@H]1CC[C@@H](Sc2cc(C#N)ccn2)CN1C(=O)c1ccccc1Oc1ccccc1 [Example 29, 2-({(3R,6R)-6-methyl-1-[(2-phenoxyphenyl)carbonyl]piperidin-3-yl}sulfanyl)pyridine-4-carbonitrile] | 10000 nM | 62.7 nM
C[C@@H]1CC[C@@H](Sc2cc(C#N)ccn2)CN1C(=O)c1ccccc1C1CC1 [Example 30, 2-({(3R,6R)-1-[(2-cyclopropylphenyl)carbonyl]-6-methylpiperidin-3-yl}sulfanyl)pyridine-4-carbonitrile] | 4070 nM | 18.3 nM
